Results on 24 compounds are retold here after US20230183239A1, “ECTONUCLEOTIDE PYROPHOSPHATASE-PHOSPHODIESTERASE 1 (ENPP-1) INHIBITORS AND USES THEREOF” (AbbVie Inc., priority 2017, published 2023).

Usually Ki stands for a dissociation constant, usually derived from enzyme kinetics or from competition with a known ligand.

Holding throughout (type): biochemical
The target in assay [1] is T1, ENPP1 (Homo sapiens, UniProt P22413).
T1 sequence (P22413 1-925): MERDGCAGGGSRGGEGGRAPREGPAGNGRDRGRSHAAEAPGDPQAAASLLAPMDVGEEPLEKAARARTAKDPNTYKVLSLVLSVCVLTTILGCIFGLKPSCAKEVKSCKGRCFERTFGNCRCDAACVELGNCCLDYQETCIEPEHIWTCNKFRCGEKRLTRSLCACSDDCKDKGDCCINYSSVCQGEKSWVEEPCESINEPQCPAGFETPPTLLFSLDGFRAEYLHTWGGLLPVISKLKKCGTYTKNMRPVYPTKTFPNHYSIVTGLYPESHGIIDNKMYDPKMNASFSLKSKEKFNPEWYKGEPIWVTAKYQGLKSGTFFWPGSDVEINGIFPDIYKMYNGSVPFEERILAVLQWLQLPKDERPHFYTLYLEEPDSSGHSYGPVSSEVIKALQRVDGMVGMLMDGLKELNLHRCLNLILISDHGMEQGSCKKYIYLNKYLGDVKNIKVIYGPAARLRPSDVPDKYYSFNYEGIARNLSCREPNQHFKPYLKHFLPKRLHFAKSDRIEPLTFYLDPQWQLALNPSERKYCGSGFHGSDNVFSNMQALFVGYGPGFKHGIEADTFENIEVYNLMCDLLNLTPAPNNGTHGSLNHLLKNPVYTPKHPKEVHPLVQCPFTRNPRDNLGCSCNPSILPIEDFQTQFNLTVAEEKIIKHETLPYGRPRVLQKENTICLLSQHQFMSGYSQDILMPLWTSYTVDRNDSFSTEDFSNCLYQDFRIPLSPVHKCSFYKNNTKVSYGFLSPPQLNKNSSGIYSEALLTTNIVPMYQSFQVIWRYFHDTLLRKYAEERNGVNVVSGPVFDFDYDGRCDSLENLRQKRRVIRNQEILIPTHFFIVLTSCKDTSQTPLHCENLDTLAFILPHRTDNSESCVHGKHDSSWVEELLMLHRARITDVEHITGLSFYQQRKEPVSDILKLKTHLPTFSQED
The assay can be described thus: ENPP1 enzyme assay with AMP-pNP substrate (hydrolysis of ATP analog). The note with it: AMP-pNP substrate (ATP analog); Ki from IC50 by Cheng-Prusoff; read-out: ENPP1 Inhibition _AMP-pNP: Ki. The method, then:
The ENPP1 assay with AMP-pNP substrate is conducted in a buffer containing 50 mM Tris-HCl (pH 8.5)/ 250 mM NaCl/0.5 mM CaCl2/1 µM ZnCl2/0.1% DMSO. Inhibitors are added at final concentrations ranging between 10 µM and 30 pM depending on the compound. Duplicate wells are run at each inhibitor concentration. The final assay volume is 40 µL and human recombinant ENPP1 is present at 60 ng/well. The assay is initiated by the addition of substrate (300 µM AMP-pNP final concentration), and incubated for 20 minutes at 37° C. […] Each assay plate also includes wells with no enzyme added (MIN OD) and wells with no inhibitor added (MAX OD). The percent inhibition of ENPP1 for each sample is then calculated as: […]
IC50 values of compounds were calculated by entering the percent inhibition values into a sigmoidal variable slope nonlinear regression model in GraphPad Prism® software.

For assay [2], the target named is T1, ENPP1. The assay can be described thus: Substrate selectivity ratio, inhibition of cGAMP hydrolysis versus ATP hydrolysis. The note with it: ratio Ki AMP-pNP / Ki cGAMP. The method, then: The selectivity ratios for inhibition of cGAMP hydrolysis versus ATP hydrolysis were then calculated as follows: […]
Assay [3] addresses T1, ENPP1. The assay can be described thus: Indirect quantitation of 2',3'-cGAMP hydrolysis (AMP-Glo Assay kit). The note with it: cGAMP substrate; Ki from IC50 by Cheng-Prusoff; read-out: ENPP1 Inhibition -cGAMP: Ki.

Regarding `COc1ccc2c(Oc3ccc(NS(N)(=O)=O)cc3F)ccnc2c1` [Example 71, N-(3-fluoro-4-((7-methoxyquinolin-4-yl)oxy)phenyl)sulfamide], the Ki at ENPP1 [1] and on ENPP1 [3] was < 100 nM each time. In addition, the “Substrate Selectivity: Ki_AMP-pNP/Ki_cGAMP” value (shortened to “Substrate Selectivity”) on ENPP1 [2] stood at 13.3.
Consider `COc1cc2nccc(N3CCC(CCNS(N)(=O)=O)CC3)c2cn1` [Example 204, N-(2-(1-(7-methoxy-1,6-naphthyridin-4-yl)piperidin-4-yl)ethyl)sulfamide], for which the figures for the Ki at ENPP1 [1] and at ENPP1 [3] were > 1000 nM and 100 to 1000 nM, respectively. Besides, the “Substrate Selectivity” value on ENPP1 [2] is reported as > 39.4.
Turning to `COc1cc2ncnc(NC(c3ccc(NS(N)(=O)=O)cc3)C3CC3)c2cc1OC` (stereo not drawn) [Example 246, N-(4-(cyclopropyl((6,7-dimethoxyquinazolin-4-yl)amino)methyl)phenyl)sulfamide], the Ki was > 1000 nM at ENPP1 [1] and < 100 nM on ENPP1 [3]. For the same compound, on ENPP1 [2], the “Substrate Selectivity” value is reported as >87.7.
Consider `COc1cc2nccc(-c3ccc4c(c3)CCN(S(N)(=O)=O)C4)c2cc1OC` [Example 367, 6-(6,7-dimethoxyquinolin-4-yl)-3,4-dihydroisoquinoline-2(1H)-sulfonamide], for which the Ki was > 1000 nM on ENPP1 [1] and < 100 nM on ENPP1 [3]. On ENPP1 [2], the “Substrate Selectivity” value is listed as >35.
`COc1ccc2c(-c3ccc(CN(C4CC4)S(N)(=O)=O)cc3)ccnc2c1` [Example 289, N-cyclopropyl-N-(4-(7-methoxyquinolin-4-yl)benzyl)sulfamide]: the Ki at ENPP1 [1] was > 1000 nM; at ENPP1 [3] it was < 100 nM. For the same compound, the “Substrate Selectivity” value at ENPP1 [2] is given as > 626.
Regarding `COc1ccc2c(-c3ccc(CNS(N)(=O)=O)cc3Cl)ccnc2c1` [Example 419, N-(3-chloro-4-(7-methoxyquinolin-4-yl)benzyl)sulfamide], the Ki at ENPP1 [1] is > 1000 nM; on ENPP1 [3] it was < 100 nM. In addition, the “Substrate Selectivity” value at ENPP1 [2] is >70.
With `COc1ccc2c(-c3ccc(CN)cc3)c(C#N)cnc2c1` [Example 277, 4-(4-(aminomethyl)phenyl)-7-methoxyquinoline-3-carbonitrile], the Ki at ENPP1 [1] was > 1000 nM; at ENPP1 [3] it was 100 to 1000 nM. Also, the “Substrate Selectivity” value on ENPP1 [2] was >90.4.
The matching figures for `COc1cc2ncc(C#N)c(-c3ccc(CNS(N)(=O)=O)cc3)c2cc1OC` [Example 241, N-(4-(3-cyano-6,7-dimethoxyquinolin-4-yl)benzyl)sulfamide]: 100 to 1000 nM, < 100 nM and 49.0.
Turning to `COc1cc2nccc(Oc3ccc(S(N)(=O)=O)cc3)c2cn1` [Example 393, 4-((7-methoxy-1,6-naphthyridin-4-yl)oxy)benzenesulfonamide], the Ki at ENPP1 [1] is 100 to 1000 nM; on ENPP1 [3], < 100 nM. The “Substrate Selectivity” value at ENPP1 [2] is on record as 51.
In the case of `COc1ccc2c(N3CCc4c3ccc(NS(N)(=O)=O)c4F)ccnc2c1` [Example 379, N-(4-fluoro-1-(7-methoxyquinolin-4-yl)indolin-5-yl)sulfamide], the Ki is 100 to 1000 nM at ENPP1 [1] and < 100 nM on ENPP1 [3]. Moreover, the “Substrate Selectivity” value at ENPP1 [2] is listed as >41.
The corresponding values for `COc1cc2nccc(-c3ccc(CNS(N)(=O)=O)cc3)c2cc1OC` [Example 225, N-(4-(6,7-dimethoxyquinolin-4-yl)benzyl)sulfamide] are < 100 nM, < 100 nM and 48.4.
Take `COc1cc2nccc(OCc3ccc(NS(N)(=O)=O)cc3)c2cc1OC` [Example 191, N-(4-(((6,7-dimethoxyquinolin-4-yl)oxy)methyl)phenyl) sulfamide]: the Ki is > 1000 nM on ENPP1 [1] and 100 to 1000 nM at ENPP1 [3]. Moreover, the “Substrate Selectivity” value at ENPP1 [2] is listed as > 25.0.
With `COc1cc2nccc(N3CC4CN(S(N)(=O)=O)CC4C3)c2cc1OC` (stereo not drawn) [Example 202, 5-(6,7-dimethoxyquinolin-4-yl)hexahydropyrrolo[3,4-c]pyrrole-2(1H)-sulfonamide], the inhibition constant (Ki) on ENPP1 [1] is 100 to 1000 nM; on ENPP1 [3] it was < 100 nM. In addition, the “Substrate Selectivity” value on ENPP1 [2] is listed as 10.5.
Consider `COc1cc2c(N3CCC(CCNS(N)(=O)=O)CC3)ncnc2cn1` [Example 189, N-(2-(1-(6-methoxypyrido[3,4-d]pyrimidin-4-yl)piperidin-4-yl)ethyl)sulfamide], for which the figures for the Ki at ENPP1 [1] and on ENPP1 [3] were > 1000 nM and 100 to 1000 nM, respectively. In addition, the “Substrate Selectivity” value at ENPP1 [2] is listed as > 27.0.
For `COc1ccc2c(-c3ccc(CNS(N)(=O)=O)c(OC)c3)ccnc2c1` [Example 373, N-(2-methoxy-4-(7-methoxyquinolin-4-yl)benzyl)sulfamide], the inhibitory constant (Ki) at ENPP1 [1] is > 1000 nM; on ENPP1 [3], 100 to 1000 nM. Moreover, the “Substrate Selectivity” value at ENPP1 [2] is >136.
Turning to `COc1cc2ncnc(NCc3ccc(S(N)(=O)=O)cc3)c2cc1OC` [Example 182, 4-(((6,7-dimethoxyquinazolin-4-yl)amino)methyl)benzene sulfonamide], the figures for the Ki at ENPP1 [1] and at ENPP1 [3] were 100 to 1000 nM and < 100 nM, respectively. The “Substrate Selectivity” value on ENPP1 [2] was determined as 24.7.
Take `COc1ccc2c(Oc3ccc(NS(N)(=O)=O)cc3)ncnc2n1` [Example 227, N-(4-((7-methoxypyrido[2,3-d]pyrimidin-4-yl)oxy)phenyl)sulfamide]: the Ki was 100 to 1000 nM at ENPP1 [1] and < 100 nM on ENPP1 [3]. For the same compound, the “Substrate Selectivity” value on ENPP1 [2] is given as 51.9.
Consider `COc1cc2nccc(-c3ccc(CNS(N)(=O)=O)nc3)c2cc1OC` [Example 314, N-((5-(6,7-dimethoxyquinolin-4-yl)pyridin-2-yl)methyl)sulfamide], for which the Ki at ENPP1 [1] is > 1000 nM; at ENPP1 [3] it was < 100 nM. Besides, on ENPP1 [2], the “Substrate Selectivity” value is listed as 35.7.
For the compound `COc1cc2ccc(=O)n(Cc3ccc(NS(N)(=O)=O)cc3)c2cc1OC` [Example 126, N-(4-((6,7-dimethoxy-2-oxoquinolin-1(2H)-yl)methyl)phenyl) sulfamide], the values for the Ki on ENPP1 [1] and on ENPP1 [3] were > 1000 nM and 100 to 1000 nM, respectively. The “Substrate Selectivity” value at ENPP1 [2] is recorded as >134.
As for `COc1cc2nccc(NCc3ccc(NS(N)(=O)=O)cc3)c2cc1OC` [Example 180, N-(4-(((6,7-dimethoxyquinolin-4-yl)amino)methyl)phenyl)sulfamide], the values for the Ki at ENPP1 [1] and at ENPP1 [3] were > 1000 nM and 100 to 1000 nM, respectively. Besides, on ENPP1 [2], the “Substrate Selectivity” value is recorded as > 11.9.
The corresponding values for `COc1cc2c(-c3ccc(CNS(N)(=O)=O)cc3)c(C#N)cnc2cn1` [Example 235, N-(4-(3-cyano-6-methoxy-1,7-naphthyridin-4-yl)benzyl)sulfamide] are > 1000 nM, 100 to 1000 nM and >97.7.
For the compound `COc1cc2ncnc(N3CCC(CCNS(=O)(=O)C(F)F)CC3)c2cc1OC` [Example 208, N-(2-(1-(6,7-dimethoxyquinazolin-4-yl)piperidin-4-yl)ethyl)-1,1-difluoromethanesulfonamide], the values for the Ki at ENPP1 [1] and at ENPP1 [3] were > 1000 nM and < 100 nM, respectively. The “Substrate Selectivity” value on ENPP1 [2] was > 16.4.
`COc1ccc2c(-c3ccc(CNS(N)(=O)=O)c(F)c3)ccnc2c1` [Example 62, N-(2-fluoro-4-(7-methoxyquinolin-4-yl)benzyl)sulfamide]: the Ki at ENPP1 [1] and on ENPP1 [3] was < 100 nM throughout. The “Substrate Selectivity” value on ENPP1 [2] is 16.1.
`COc1ccc2c(-c3ccc4c(c3)CN(S(N)(=O)=O)CC4)ccnc2c1` [Example 305, 7-(7-methoxyquinolin-4-yl)-3,4-dihydroisoquinoline-2(1H)-sulfonamide]: the Ki on ENPP1 [1] is 100 to 1000 nM; at ENPP1 [3], < 100 nM. Also, the “Substrate Selectivity” value on ENPP1 [2] is recorded as >13.0.
